From patent US7332486B2, “Phosphodiesterase 4 inhibitors” (Memory Pharmaceuticals Corp., priority 2002, dated 2008)
Counter-ions that a name gives are not always drawn.

How the values were obtained:
rats [1] = assay: Radial arm maze task in rats, an in vivo test for learning and memory; set-up: species or system rat; settings: MK-801 0.1 mg/kg, i.p., compared to control, p<0.01
Experimental: The test was performed as previously described (Zhang, H.-T., Crissman, A. M., Dorairaj, N. R., Chandler, L. J., and O'Donnell, J. M., Neuropsychopharmacology, 2000, 23, 198-204.). Five days after initial housing, rats (male Spraque-Dawley (Harlan) weighing 250 to 350 g) were placed in the eight-arm radial maze (each arm was 60×10×12 cm high; the maze was elevated 70 cm above the floor) for acclimation for two days. Rats were then placed individually in the center of the maze for 5 minutes with food pellets placed close to the food wells, and then, the next day, in the wells at the end of the arms; 2 sessions a day were conducted. Next, four randomly selected arms were then baited with one pellet of food each. The rat was restricted to the center platform (26 cm in diameter) for 15 seconds and then allowed to move freely throughout the maze until it collected all pellets of food or 10 minutes passed, whichever came first. Four parameters were recorded: 1) working memory errors, i.e., entries into baited arms that had already been visited during the same trial; 2) reference memory errors, i.e., entries into unbaited arms; 3) total arm entries; and 4) the test duration (seconds), i.e., the time spent in the collection of all the pellets in the maze. […]
(§1) All data were analyzed by analyses of variance (ANOVA); individual comparisons were made using Kewman-Keuls tests. […]

rats [2] = assay: Passive avoidance in rats, an in vivo test for learning and memory; set-up: species or system rat; settings: MK-801 0.1 mg/kg pretreatment, compared to the vehicle, p<0.001, 24 hours after electric shock
Experimental: The test was performed as previously described (Zhang, H.-T., Crissman, A. M., Dorairaj, N. R., Chandler, L. J., and O'Donnell, J. M., Neuropsychopharmacology, 2000, 23, 198-204.). The apparatus (Model E10-16SC, Coulbourn Instruments, Allentown, Pa.) consisted of a two-compartment chamber with an illuminated compartment connected to a darkened compartment by a guillotine door. The floor of the darkened compartment consisted of stainless steel rods through which an electric foot-shock could be delivered from a constant current source. All experimental groups were first habituated to the apparatus the day before the start of the experiment. During the training, the rat (Male Spraque-Dawley (Harlan) weighing 250 to 350 g) was placed in the illuminated compartment facing away from the closed guillotine door for 1 minute before the door was raised. The latency for entering the darkened compartment was recorded. After the rat entered the darkened compartment, the door was closed and a 0.5 mA electric shock was administered for 3 seconds. […] The latency for entering the darkened compartment was recorded for up to 180 seconds, at which time the trial was terminated.
as §1

[3] = Solubility of the mesylate salt in H2O; format: physicochemical
Experimental: To obtain the methansulphonate salt (mesylate salt), 4 ml of 0.1N CH3SO3H in EtOAc was added to a solution of 145 mg (0.4 mmol) 6-cyclopropylamino-9-(2-fluorobenzyl)-2-trifluoromethylpurine in EtOAc. Then, 1 ml of hexane was added to a warm solution and the resultant mixture was allowed to crystallize (within a refrigerator). The solid was collected to give 148 mg of the mesylate salt. […] M.p. 167.5-169.0 C; m.p. 114-118 C for free base.

SMILES	frequency of reference memory errors (rats [1])	frequency of working memory errors (rats [1])	latency for entering the darkened compartment (retention test) (rats [2])	solubility in H2O [3]
C[C@]12N[C@H](Cc3ccccc31)c1ccccc12 [MK-801]	increased	increased	markedly reduced	
Fc1ccccc1Cn1cnc2c(NC3CC3)nc(C(F)(F)F)nc21 [Example 4 mesylate salt, 6-cyclopropylamino-9-(2-fluorobenzyl)-2-trifluoromethylpurine]				relatively insoluble
